Our source for the EC50 and Emax values is patent US20240182456A1, “2-((4-((S)-2-(4-CHLORO-2-FLUOROPHENYL)-2-METHYLBENZO[D][1,3]DIOXOL-4-YL)PIPERIDIN-1-YL)METHYL)-1-(((S)-OXETAN-2-YL)METHYL)-1H-IMIDAZOLE DERIVATIVES AS ACTIVATORS OF THE GLP1 RECEPTOR FOR THE TREATMENT OF OBESITY” (Novartis AG, priority 2021, published 2024).

Structures are written as SMILES. Bounds are passed on as bounds.

For this test, the target named is human GLP1R (Homo sapiens, UniProt P43220). Nature of the test: Human GLP1R DERET internalization assay. The test is classed as cell-based. To be noted: HEK293-SNAP-hGLP1R-GloSensor cells; for EC50: mean n=2; for Emax: relative to GLP1(7-36). In outline:
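HEK293 cells stably expressing SNAP-tagged hGLP1R, labelled with SNAP-Lumi-Tb, then exposed at 37 °C to 3-fold compound dilutions (top 30 μM) with 25 μM fluorescein. Donor/acceptor TR-FRET ratio read every 30 min. EC50 and Emax from 4-parameter fits, normalised to the GLP1(7-36) EC100 (top 1 μM) and buffer-only EC0 wells.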

Chain of human GLP1R (P43220 24-463): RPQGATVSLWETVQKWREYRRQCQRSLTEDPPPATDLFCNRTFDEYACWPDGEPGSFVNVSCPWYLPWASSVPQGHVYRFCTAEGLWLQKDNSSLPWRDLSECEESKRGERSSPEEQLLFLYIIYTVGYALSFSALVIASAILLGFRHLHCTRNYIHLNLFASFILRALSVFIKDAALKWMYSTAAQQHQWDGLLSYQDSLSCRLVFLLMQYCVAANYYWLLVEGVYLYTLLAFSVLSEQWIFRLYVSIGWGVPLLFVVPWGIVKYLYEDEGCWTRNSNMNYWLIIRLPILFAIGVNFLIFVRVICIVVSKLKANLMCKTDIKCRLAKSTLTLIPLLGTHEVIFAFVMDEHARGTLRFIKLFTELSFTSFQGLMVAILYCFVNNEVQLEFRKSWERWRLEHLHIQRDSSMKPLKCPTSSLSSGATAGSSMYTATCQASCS

As a reminder, the EC50 is the concentration needed to bring the measured effect to its halfway point. In general, Emax refers to the greatest response seen or fitted, relative to the assay's reference. Compound `C[C@]1(c2ccc(Cl)cc2F)Oc2cccc(C3CCN(Cc4ncc(/C=C/C(=O)O)n4C[C@@H]4CCO4)CC3)c2O1` [Compound C-1, (E)-3-(2-((4-((S)-2-(4-chloro-2-fluorophenyl)-2-methylbenzo[d][1,3]dioxol-4-yl)piperidin-1-yl)methyl)-1-(((S)-oxetan-2-yl)methyl)-1H-imidazol-5-yl)acrylic acid] came in with a concentration giving a half-maximal response (EC50) of 0.336 µM and a maximum response (Emax) of 67%.
In turn, `C[C@]1(c2ccc(Cl)cc2F)Oc2cccc(C3CCN(Cc4nc(/C=C/C(=O)O)cn4C[C@@H]4CCO4)CC3)c2O1` [Compound C-2, (E)-3-(2-((4-((S)-2-(4-chloro-2-fluorophenyl)-2-methylbenzo[d][1,3]dioxol-4-yl)piperidin-1-yl)methyl)-1-(((S)-oxetan-2-yl)methyl)-1H-imidazol-4-yl)acrylic acid] registered an EC50 of more than 30 µM and an Emax of 5%.
In turn, `Cc1nc(CN2CCC(c3cccc4c3O[C@@](C)(c3ccc(Cl)cc3F)O4)CC2)n(C[C@@H]2CCO2)c1/C=C/C(=O)O` [Compound C-5, (E)-3-(2-((4-((S)-2-(4-chloro-2-fluorophenyl)-2-methylbenzo[d][1,3]dioxol-4-yl)piperidin-1-yl)methyl)-4-methyl-1-(((S)-oxetan-2-yl)methyl)-1H-imidazol-5-yl)acrylic acid] returned an EC50 of 0.089 µM and an Emax of 58%.
The matching figures for `C[C@]1(c2ccc(Cl)cc2F)Oc2cccc(C3CCN(Cc4nc(C(F)(F)F)c(C(=O)O)n4C[C@@H]4CCO4)CC3)c2O1` [Compound C-7, 2-((4-((S)-2-(4-chloro-2-fluorophenyl)-2-methylbenzo[d][1,3]dioxol-4-yl)piperidin-1-yl)methyl)-1-(((S)-oxetan-2-yl)methyl)-4-(trifluoromethyl)-1H-imidazole-5-carboxylic acid]: more than 30 µM and 3%.
